Laboratory results taken from US20240115649A1, “CASPASE INHIBITION TO ENHANCE REGENERATION AND REPAIR AFTER SKIN OR GUT INJURY AND TO TREAT BACTERIAL OR VIRAL INFECTIONS” (The Johns Hopkins University, priority 2020, published 2024).

Tests used:
IL-1β = assay: Serum IL-1β levels after S. aureus skin inoculation; assay type: in vivo, mice; conditions: days 1 and 3
Procedure: (§1) Serum IL-1β and TNF levels. Serum IL-1β and TNF protein levels (pg/mL) were measured from serum collected on days 1 and 3 after S. aureus skin inoculation±Q-VD-OPH treatment using Bio-Plex protein assays and normalized to total protein, according to the manufacturer's recommendations (Bio-Rad).

neogenic hair follicles = assay: Wound Induced Hair Neogenesis (WIHN) assay; assay type: in vivo, mice
Procedure: Wound Induced Hair Neogenesis (WIHN) Assay. All in vivo experimental surgical procedures were performed as previously characterized ^1,2,6-8. In short, after exposure to vaporizing anesthesia (Baxter, Isoflurane) the dorsal side of male and female 3-week-old (21 days) mice were shaved at approximately 8-10 g of weight. Using surgical scissors, approximately 1.26 cm^2×1.25 cm^2 of skin was excised creating wounds deep into the fascia. At 3 days post-wounding, a single dose (50 μl) of 100 μg/mL high molecular weight (HMW) polyinosinic-polycytidylic acid (Poly (I:C)) (Invivogen, tlrl-pic) was administered underneath the scab site via injection in both wild-type and transgenic mice as previously described^2,8. For functional experiments characterizing IL-36 on WIHN, a single dose (50 μl) of 1 μg/mL recombinant mouse IL-36α protein (R&D Systems, 7059-ML/CF) was injected underneath the scab site at 7 days post-wounding. For rescue experiments using the small molecule, broad spectrum pan-caspase inhibitor, 20 ul of 5 mg/mL Q-VD-OPh (in DMSO) was diluted 130 μL of phosphate-buffered saline (PBS) (1.33 mM final concentration) and injected intraperitoneally in mice 24 hours prior to wounding and approximately 10 days after wounding (scab detachment).
Immunofluorescence, immunocytochemistry, and immunohistochemistry.

[1] = test system: P. aeruginosa strain Xen41; assay: P. aeruginosa skin infection model; assay type: in vivo; conditions: WT C57BL/6 mice; treatment at 4 hours; vs untreated
pMLKL, MLKL, ICAD = assay: Western blot analysis of infected skin; assay type: in vivo, mice
[2] = test system: mouse epithelial keratinocytes; assay: Mouse epithelial keratinocyte culture (qRT-PCR, immunoblot)
mouse neutrophils = assay: Neutrophil cultures with live S. aureus ± caspase inhibitors; conditions: Q-VD-OPH 10 μg/mL, live S. aureus 6 hours
ASC specks = assay: ASC speck formation in ASC-Citrine mice (in vivo FLI, PuLSA assay)
[3] = test system: S. aureus USA300 LAC::lux; assay: Bacterial growth curve kinetics, S. aureus broth cultures; assay type: cell-based; conditions: 10, 100 and 1,000 μg/mL; 10 hours; vs vehicle
TNF = assay: Serum TNF levels after S. aureus skin inoculation; assay type: in vivo, mice; conditions: days 1 and 3; vs untreated
Procedure: as §1

[4] = test system: P. aeruginosa strain Xen41; assay: Bacterial growth curve kinetics, P. aeruginosa broth cultures; assay type: cell-based; conditions: 10, 100 and 1,000 μg/mL; vs vehicle
S. pyogenes strain Xen20 [5] = assay type: in vivo; conditions: WT C57BL/6 mice; single dose at 4 hours; vs untreated
Streptopain (speB) = Streptopain (speB) (Streptococcus pyogenes, UniProt P0C0J0); assay type: biochemical, S. pyogenes
Streptopain (speB), sequence (P0C0J0 146-398 limits assumed): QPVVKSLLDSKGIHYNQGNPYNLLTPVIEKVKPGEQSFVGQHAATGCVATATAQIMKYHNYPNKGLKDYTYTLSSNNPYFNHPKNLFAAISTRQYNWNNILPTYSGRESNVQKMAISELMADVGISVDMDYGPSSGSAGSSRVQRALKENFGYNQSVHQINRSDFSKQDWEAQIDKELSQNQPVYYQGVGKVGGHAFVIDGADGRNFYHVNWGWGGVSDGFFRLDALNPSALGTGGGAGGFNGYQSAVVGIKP

[6] = test system: DSS treated C57BL/J6 mice; assay: DSS-induced colitis model; assay type: in vivo
Excerpt: Histology. Biopsies from mouse colon and skin tissue were removed and fixed in 4% paraformaldehyde overnight and then transferred to 70% ethanol. Samples were then submitted to the Johns Hopkins Oncology Tissue Services Core facility where they were embedded in paraffin. Tissue sections were obtained at 4pin thickness and mounted onto glass slides, followed by hematoxylin and eosin (H&E) staining.
Colitis Model. In order to induce colitis, adult wild-type, Rnasel -A , and Il36r^−/− mice were fed up to 4% (w/v) 36-50 kDa dextran sodium sulfate (DSS) (MP Biomedicals, 160110) in sterile water^37. Weight changes were monitored and recorded every day. For rescue experiments using the pan-caspase inhibitor Q-VD-OPh, mice were treated at the same concentrations as in WIHN experiments and were injected intraperitoneally during the day when noticeable weight loss began to occur (˜day 3-4). Mice were eventually sacrificed and colon lengths were extracted for gross examination and downstream FACS and protein analysis.

Staphopain B (sspB) = target: T1, Staphopain B (sspB) (Staphylococcus aureus, UniProt P0C1S6); assay: Protease activity assays and protein blot, Staphopain B; assay type: biochemical, S. aureus
T1 construct: purchased CUSABIO
T1 sequence (P0C1S6 220-393): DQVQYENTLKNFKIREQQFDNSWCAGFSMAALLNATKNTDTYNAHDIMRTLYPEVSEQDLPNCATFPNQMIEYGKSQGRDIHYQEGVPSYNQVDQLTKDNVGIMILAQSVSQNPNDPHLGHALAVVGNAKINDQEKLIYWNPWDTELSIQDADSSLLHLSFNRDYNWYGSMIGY

S. pyogenes strain Xen20 [7] = assay type: cell-based; conditions: 10, 100 and 1,000 μg/mL; vs vehicle
Staphopain A (sspP) = target: T2, Staphopain A (sspP) (Staphylococcus aureus, UniProt P81297); assay: Protease activity assays and protein blot, Staphopain A; assay type: biochemical, S. aureus
T2 construct: purchased CUSABIO
T2 sequence (P81297 215-388): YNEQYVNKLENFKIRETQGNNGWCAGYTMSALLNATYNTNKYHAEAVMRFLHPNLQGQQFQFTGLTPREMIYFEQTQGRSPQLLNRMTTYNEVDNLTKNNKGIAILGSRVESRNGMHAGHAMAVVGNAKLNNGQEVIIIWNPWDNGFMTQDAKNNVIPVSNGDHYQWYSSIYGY

With CC(C)[C@H](NC(=O)c1ccc2ccccc2n1)C(=O)N[C@@H](CC(=O)O)C(=O)COc1c(F)cccc1F [Q-VD-OPH, Quinoline-val-asp-difluorophenoxymethyl ketone] the “serum levels of IL-1β” value (IL-1β) was “decreased serum levels of IL-1β”, the WIHN (neogenic hair follicles; Il36r^−/− mice treated with Q-VD-OPh) was “do not” and the WIHN (neogenic hair follicles; wild-type mice, Q-VD-OPh 1.33 mM i.p. 24 hours prior to and ~10 days after wounding, vs vehicle) was “more WIHN”. The “IL-36α in the epidermis of re-epithelialized wounds” value (neogenic hair follicles; wild-type mice, Q-VD-OPh i.p., vs vehicle) was “higher levels of IL-36α in the epidermis of re-epithelialized wounds”, the “bacterial burden (in vivo BLI)” value [1] was “modest but significantly decreased” and the skin lesion sizes [1] was “modest but significantly decreased skin lesion sizes”. For the same molecule, the “necroptosis (pMLKL and MLKL expression)” value (pMLKL, MLKL, ICAD; TNF^−/− mice, day 1, vs untreated or Q-VD-OPH treated WT mice) was “reduced necroptosis”, the “apoptosis (ICAD)” value (pMLKL, MLKL, ICAD; TNF^−/− mice, infected skin day 1) was “reduced apoptosis” and the “apoptosis (ICAD)” value (pMLKL, MLKL, ICAD; WT mice, infected skin day 1) was “reduced apoptosis”. For the same molecule, the “necroptosis (pMLKL, MLKL)” value (pMLKL, MLKL, ICAD; WT mice, infected skin day 1) was “increases necroptosis”, the “IL-36 receptor (IL36r) expression” value ([2]; 48 hrs treatment) was “not detected” and the “IL-36 receptor antagonist (IL-36m) protein or mRNA levels” value ([2]; 48 hrs treatment) was “No differences”. The “IL-36α mRNA” value ([2]; 48 hrs treatment) was “higher levels of IL-36α mRNA and protein”, the Tlr3 expression ([2]; 48 hrs treatment) was “again elevated” and the “caspase gene mRNA (inflammatory caspases 1 and 4)” value ([2]; 48 hrs treatment) was “compensatory mRNA increases of caspase genes”. The “IL-36α protein (whole-cell lysates)” value ([2]; mouse epithelial keratinocytes) was “higher levels of IL-36α mRNA and protein”, the “necroptosis (western blot for pMLKL and MLKL)” value (mouse neutrophils) was “necroptosis was increased” and the “percentages of TNF+ neutrophils” value (mouse neutrophils; Emricasan 9 μg/mL) was 25.47%. For the same molecule, the “viable cells (Zombie UV negative cells)” value (mouse neutrophils; Emricasan 9 μg/mL, no significant differences vs no treatment) was roughly 50%, the “in vivo ASC speck formation (in vivo FLI signals)” value (ASC specks; ASC-Citrine mice, 6 hours following Q-VD-OPH administration) was “virtually inhibited all in vivo ASC speck formation” and the “percentage of total ASC-Citrine expression in live cells” value (ASC specks; infected skin, day 1, treated vs untreated) was “not significantly different”. The “percentage of cells with ASC-Specks (PuLSA assay)” value (ASC specks; infected skin, day 1, vs untreated) was “substantially reduced percentage of cells with ASC-Specks”, the “in vitro absorbance, bioluminescence and CFU (direct antibacterial activity)” value [3] was “no differences in in vitro absorbance, bioluminescence and CFU” and the “serum TNF protein levels” value (TNF) was “increased serum TNF protein levels”. For the same molecule, the “in vitro absorbance and bioluminescence” value [4] was “no differences in in vitro absorbance and bioluminescence”, the “bacterial burden (in vivo BLI)” value (S. pyogenes strain Xen20 [5]) was “rapidly reduced bacterial burden” and the skin lesion sizes (S. pyogenes strain Xen20 [5]) was “substantially decreased skin lesion sizes”. The “physical conformational changes or degradation of speB (protein blot)” value (Streptopain (speB); 2 hours at 37° C.) was “did not induce any physical conformational changes or cause degradation”, the “activity of speB on gelatinase activity or elastin proteolysis” value (Streptopain (speB); 20 hours) was “did not affect the activity” and the “gut shortening after DSS treatment” value ([6]; Il36r^−/− mice) was “does not rescue gut shortening”. For the same molecule, the weight loss ([6]; Il36r^−/− mice, DSS) was “does not rescue weight loss”, the “IL-36α expression in the gut” value ([6]; WT mice) was “Increased IL-36α expression” and the “neutrophil abundance in the blood or the gut” value ([6]; regenerative phase following cessation of DSS, vs controls) was “no change in neutrophil abundance”. For the same molecule, the DSS-induced weight loss ([6]; wild-type mice, 4% DSS, Q-VD-OPh i.p. 1.33 mM, vs control) was “protected from DSS-induced weight loss”, the “colon length and morphology” value ([6]; wild-type mice, 4% DSS, Q-VD-OPh i.p., vs control) was “longer and better colon morphology” and the “physical conformational changes or degradation of sspB (protein blot)” value (Staphopain B (sspB); 2 hours at 37° C.) was “did not induce any physical conformational changes or cause degradation”. For the same molecule, the “activity of sspB on gelatinase activity or elastin proteolysis” value (Staphopain B (sspB); Q-VD-OPH 10 μg/mL, 20 hours) was “did not affect the activity”, the “in vitro absorbance and bioluminescence” value (S. pyogenes strain Xen20 [7]) was “no differences in in vitro absorbance and bioluminescence” and the “physical conformational changes or degradation of sspP (protein blot)” value (Staphopain A (sspP); 2 hours at 37° C.) was “did not induce any physical conformational changes or cause degradation”. The “activity of sspP on gelatinase activity or elastin proteolysis” value (Staphopain A (sspP); Q-VD-OPH 10 μg/mL, 20 hours) was “did not affect the activity”.
